The assay concerns the target T1, recombinant guanylate cyclase reporter cell line (Rattus norvegicus, UniProt P19686+P20595).
T1 construct: expressed in transfected cells
T1 sequence (P20595 1-619): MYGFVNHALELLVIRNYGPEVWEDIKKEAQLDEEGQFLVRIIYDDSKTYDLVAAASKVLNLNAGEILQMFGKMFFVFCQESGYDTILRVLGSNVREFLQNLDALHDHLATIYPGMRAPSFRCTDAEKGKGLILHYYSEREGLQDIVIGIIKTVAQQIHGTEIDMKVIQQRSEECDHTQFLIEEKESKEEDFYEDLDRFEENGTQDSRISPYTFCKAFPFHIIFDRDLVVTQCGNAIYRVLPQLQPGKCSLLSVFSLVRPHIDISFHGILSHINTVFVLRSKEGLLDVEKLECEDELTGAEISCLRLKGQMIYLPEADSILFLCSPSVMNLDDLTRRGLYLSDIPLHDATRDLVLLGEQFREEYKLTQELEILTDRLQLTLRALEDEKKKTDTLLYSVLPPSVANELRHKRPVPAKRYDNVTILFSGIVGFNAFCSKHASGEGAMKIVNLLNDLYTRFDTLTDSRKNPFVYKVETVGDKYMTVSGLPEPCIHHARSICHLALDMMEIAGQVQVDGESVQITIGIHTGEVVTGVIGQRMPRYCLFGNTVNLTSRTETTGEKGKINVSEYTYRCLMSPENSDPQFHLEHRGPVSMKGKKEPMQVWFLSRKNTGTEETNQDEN
T1 sequence (P19686 1-690): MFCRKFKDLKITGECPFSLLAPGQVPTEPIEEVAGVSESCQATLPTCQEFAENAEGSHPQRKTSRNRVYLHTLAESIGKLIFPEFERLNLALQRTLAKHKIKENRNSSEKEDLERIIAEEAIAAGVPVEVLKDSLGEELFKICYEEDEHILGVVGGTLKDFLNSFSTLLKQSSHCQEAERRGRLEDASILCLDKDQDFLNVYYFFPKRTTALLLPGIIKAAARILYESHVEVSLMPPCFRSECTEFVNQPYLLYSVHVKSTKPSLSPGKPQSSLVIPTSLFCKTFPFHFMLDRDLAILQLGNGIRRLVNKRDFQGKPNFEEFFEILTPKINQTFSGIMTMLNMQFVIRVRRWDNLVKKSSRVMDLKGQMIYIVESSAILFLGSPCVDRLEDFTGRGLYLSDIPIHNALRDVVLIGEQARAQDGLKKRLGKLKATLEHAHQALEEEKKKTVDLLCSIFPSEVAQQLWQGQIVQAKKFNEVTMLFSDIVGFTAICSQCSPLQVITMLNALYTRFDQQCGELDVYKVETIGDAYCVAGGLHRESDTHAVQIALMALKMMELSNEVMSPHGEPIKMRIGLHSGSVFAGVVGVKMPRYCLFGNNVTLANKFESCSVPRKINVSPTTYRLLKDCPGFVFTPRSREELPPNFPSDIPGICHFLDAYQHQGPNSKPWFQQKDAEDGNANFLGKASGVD
In words: B-2. Action on recombinant guanylate cyclase reporter cell line. It is filed as cell-based. As to conditions: MEC = minimal effective concentration; in some cases mean values from individual determinations. Put shortly:
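Read-out: MEC (minimal effective concentration) in cells. Reporter line carries recombinant sGC. Some values are averages of single runs.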

On to `Cc1cc(OCc2c(F)cccc2F)c2nc(C)c(C(=O)NCC(C)(N)Cc3ncn(-c4cc(C)on4)n3)n2c1` (racemic) [Example 321, rac-N-{2-amino-2-methyl-3-[1-(5-methyl-1,2-oxazol-3-yl)-1H-1,2,4-triazol-3-yl]propyl}-8-[(2,6-difluorobenzyl)oxy]-2,6-dimethylimidazo[1,2-a]pyridine-3-carboxamide], for which the MEC was 0.30 µM. Under `Cc1cc(OCc2c(F)cccc2F)c2nc(C)c(C(=O)NC3CC3N)n2c1` (racemic) [Example 330, rac-N-(2-aminocyclopropyl)-8-[(2,6-difluorobenzyl)oxy]-2,6-dimethylimidazo[1,2-a]pyridine-3-carboxamide] stands 0.30 µM. Under `Cc1cc(OCc2c(F)cccc2F)c2nc(C)c(C(=O)NC3CCC3(C)N)n2c1` (racemic) [Example 331, rac-N-(2-amino-2-methylcyclobutyl)-8-[(2,6-difluorobenzyl)oxy]-2,6-dimethylimidazo[1,2-a]pyridine-3-carboxamide] stands 0.30 µM. Turning to `Cc1cc(OCc2c(F)cccc2F)c2nc(C)c(C(=O)NC3(C)CCC3(C)N)n2c1` (racemic) [Example 335, rac-N-[2-amino-1,2-dimethylcyclobutyl]-8-[(2,6-difluorobenzyl)oxy]-2,6-dimethylimidazo[1,2-a]pyridine-3-carboxamide], the MEC turned out to be 0.30 µM. Consider `CCCC(C)(N)CNC(=O)c1c(C)nc2c(OCc3ccccc3)cc(C)cn12` (racemic) [Example 340, rac-N-(2-amino-2-methylpentyl)-8-(benzyloxy)-2,6-dimethylimidazo[1,2-a]pyridine-3-carboxamide], for which the MEC stood at 1.00 µM. Under `Cc1cc(OCc2c(F)cccc2F)c2nc(C)c(C(=O)NC3C(N)C3(C)C)n2c1` (racemic) [Example 341, rac-N-(3-amino-2,2-dimethylcyclopropyl)-8-[(2,6-difluorobenzyl)oxy]-2,6-dimethylimidazo[1,2-a]pyridine-3-carboxamide (Racemate)] stands 0.30 µM; under `Cc1cc(OCc2c(F)cccc2F)c2nc(C)c(C(=O)NC3CCC4NCCC43)n2c1` (racemic) [Example 342, rac-8-[(2,6-Difluorobenzyl)oxy]-2,6-dimethyl-N-(octahydrocyclopenta[b]pyrrol-4-yl)imidazo[1,2-a]pyridine-3-carboxamide], 1.00 µM; under `CCCC(C)(N)CNC(=O)c1c(C)nc2c(OCc3ccccc3Cl)cc(C)cn12` (racemic) [Example 343, rac-N-(2-amino-2-methylpentyl)-8-[(2-chlorobenzyl)oxy]-2,6-dimethylimidazo[1,2-a]pyridine-3-carboxamide], 1.00 µM. Under `Cc1cc(OCc2c(F)cccc2F)c2nc(C)c(C(=O)NCC3CN(Cc4ccccc4)CCO3)n2c1` (racemic) [Example 344, rac-N-[(4-benzylmorpholin-2-yl)methyl]-8-[(2,6-difluorobenzyl)oxy]-2,6-dimethylimidazo[1,2-a]pyridine-3-carboxamide] stands 1.00 µM; under `Cc1cc(OCc2c(F)cccc2F)c2nc(C)c(C(=O)NCC3CNCCO3)n2c1` (racemic) [Example 345, rac-8-[(2,6-Difluorobenzyl)oxy]-2,6-dimethyl-N-(morpholin-2-ylmethyl)imidazo[1,2-a]pyridine-3-carboxamide], 1.00 µM; under `Cc1cc(OCc2c(F)cccc2F)c2nc(C)c(C(=O)NC34CCC3CNC4)n2c1` (racemic) [Example 346, rac-N-(3-azabicyclo[3.2.0]hept-1-yl)-8-[(2,6-difluorobenzyl)oxy]-2,6-dimethylimidazo[1,2-a]pyridine-3-carboxamide], 1.00 µM.

Consider `Cc1cc(OCc2c(F)cccc2F)c2nc(C)c(C(=O)NC3CNCC3F)n2c1` (racemic) [Example 347, rac-8-[(2,6-Difluorobenzyl)oxy]-N-(4-fluoropyrrolidin-3-yl)-2,6-dimethylimidazo[1,2-a]pyridine-3-carboxamide], for which the MEC came to 1.00 µM. In the case of `CCCC(C)(N)CNC(=O)c1c(C)nc2c(OCc3cccc(F)c3)cc(C)cn12` (racemic) [Example 348, rac-N-(2-amino-2-methylpentyl)-8-[(3-fluorobenzyl)oxy]-2,6-dimethylimidazo[1,2-a]pyridine-3-carboxamide], the MEC came to 1.00 µM.

Take `Cc1cc(OCc2c(F)cccc2F)c2nc(C)c(C(=O)NCC(C)(N)COc3ccc(F)c(F)c3)n2c1` (racemic) [Example 350, rac-N-[2-amino-3-(3,4-difluorophenoxy)-2-methylpropyl]-8-[(2,6-difluorobenzyl)oxy]-2,6-dimethylimidazo[1,2-a]pyridine-3-carboxamide]: the MEC was 1.00 µM.

As for `CCCC(C)(N)CNC(=O)c1c(C)nc2c(OCc3c(F)cccc3OC)cc(C)cn12` (racemic) [Example 351, rac-N-(2-amino-2-methylpentyl)-8-[(2-fluoro-6-methoxybenzyl)oxy]-2,6-dimethylimidazo[1,2-a]pyridine-3-carboxamide], the MEC is 3.00 µM. Next, `Cc1cc(OCc2c(F)cccc2F)c2nc(C)c(C(=O)NCC3CSCCN3)n2c1` (racemic) [Example 366, rac-8-[(2,6-difluorobenzyl)oxy]-2,6-dimethyl-N-(thiomorpholin-3-ylmethyl)imidazo[1,2-a]pyridine-3-carboxamide]: 0.10 µM.

In the case of `Cc1cc(OCc2c(F)cccc2F)c2nc(C)c(C(=O)NCC(N)c3cccc(OCCO)c3)n2c1` (racemic) [Example 367, rac-N-{2-amino-2-[3-(2-hydroxyethoxy)phenyl]ethyl}-8-[(2,6-difluorobenzyl)oxy]-2,6-dimethylimidazo[1,2-a]pyridine-3-carboxamide], the MEC turned out to be 3.00 µM. Next, `COc1ccc(CC(C)(N)CNC(=O)c2c(C)nc3c(OCc4c(F)cccc4F)cc(C)cn23)cc1` (racemic) [Example 368, rac-N-[2-amino-3-(4-methoxyphenyl)-2-methylpropyl]-8-[(2,6-difluorobenzyl)oxy]-2,6-dimethylimidazo[1,2-a]pyridine-3-carboxamide]: 0.10 µM; `Cc1cc(OCc2c(F)cccc2F)c2nc(C)c(C(=O)NCC(N)c3ccc(C)o3)n2c1` (racemic) [Example 369, rac-N-[2-amino-2-(5-methyl-2-furyl)ethyl]-8-[(2,6-difluorobenzyl)oxy]-2,6-dimethylimidazo[1,2-a]pyridine-3-carboxamide]: 0.30 µM; `Cc1cc(OCc2c(F)cccc2F)c2nc(C)c(C(=O)NCC(N)c3cnn(C)c3)n2c1` (racemic) [Example 370, rac-N-[2-amino-2-(1-methyl-1H-pyrazol-4-yl)ethyl]-8-[(2,6-difluorobenzyl)oxy]-2,6-dimethylimidazo[1,2-a]pyridine-3-carboxamide]: 3.00 µM. Under `Cc1cc(OCc2c(F)cccc2F)c2nc(C)c(C(=O)NCC(N)c3ccc4c(c3)OCCO4)n2c1` (racemic) [Example 371, rac-N-[2-amino-2-(2,3-dihydro-1,4-benzodioxin-6-yl)ethyl]-8-[(2,6-difluorobenzyl)oxy]-2,6-dimethylimidazo[1,2-a]pyridine-3-carboxamide] stands 3.00 µM; under `Cc1cc(OCc2c(F)cccc2F)c2nc(C)c(C(=O)NCC(N)c3ccc4ncccc4c3)n2c1` (racemic) [Example 372, rac-N-[2-amino-2-(quinolin-6-yl)ethyl]-8-[(2,6-difluorobenzyl)oxy]-2,6-dimethylimidazo[1,2-a]pyridine-3-carboxamide], 3.00 µM; under `Cc1cc(OCc2c(F)cccc2F)c2nc(C)c(C(=O)NCC(N)c3csc4ccccc34)n2c1` (racemic) [Example 373, rac-N-[2-amino-2-(1-benzothiophen-3-yl)ethyl]-8-[(2,6-difluorobenzyl)oxy]-2,6-dimethylimidazo[1,2-a]pyridine-3-carboxamide], 3.00 µM.
